# From a melting point compilation (Tetko et al.; mined from patent text by program, amines drawn as free bases though some values may be those of a salt)
row,melting point [°C],SMILES
1,249 to 254,NCC1CN(c2c(F)cc3c(=O)c(C(=O)O)cn(-c4nc(N)c(F)cc4F)c3c2Cl)C1
2,112,COCCOC(=O)OC[C@@H]1CC(c2ccc(-c3ccc(N4C[C@H](Cn5ccnn5)OC4=O)cc3F)cn2)=NO1
3,73 to 75,CC(O)(CSc1ccc(F)cc1)C(=O)O (centres undefined)
4,173 to 175,CC(C)(C)NCc1cc(Br)cc(Br)c1O
5,246 to 248,COc1ccc(-c2[nH]c3ccccc3c(=O)c2Cc2ccncc2)cc1
6,123 to 125,CO/N=C1\CCCC[C@@H]1NC(=O)c1cc(-c2ccc(Cl)cc2)c(O[C@@H](C)C(F)(F)F)cn1
7,181 to 183,CCOC(=O)c1ncc2[nH]c3ccccc3c2c1CCOC
8,270 to 271,CC(C)(C)NS(=O)(=O)c1cccc(-c2ccc3cnc(Nc4ccc(=O)[nH]c4)nn23)c1
9,48 to 50,COc1ccc(OC)c(OCCCCl)c1
10,90 to 91,OCc1cc2c(Oc3ccc(Cl)cc3)cncc2s1
11,218 to 219,FC(F)(F)c1cc(OCc2ccc(-c3ccccc3-c3nnn[nH]3)cc2)c2c(n1)CCCC2
12,165,Cc1ccc(=NC#N)n(-c2cccc(C(F)(F)F)c2)c1
13,97 to 100,O=C(N1CCCCC12CCc1ccccc1C2=O)C(F)(F)F (centres undefined)
14,256 to 257,O=C(Nc1nc2ccc(C(F)(F)F)cc2s1)c1c(F)cccc1F
15,142,COC(=O)C(C)Oc1ccc(Oc2ccc(C(F)(F)F)cc2)cc1 (centres undefined)
16,270,COc1cccc(OC)c1-c1cc(C(=O)NC2(C(=O)O)C3CC4CC(C3)CC2C4)nn1-c1ccc(NC=O)c2ccccc12 (centres undefined)
17,70,CN(CCCNc1ncc(Cc2ccc(F)cc2)c(=O)[nH]1)c1ccccn1
18,92 to 93,CCOP(=O)(/C=C/c1cn(-c2ccccc2)nc1OCc1ccc(OCc2nc(-c3ccco3)oc2C)c(C(=O)OC)c1)OCC
19,264,Cn1nc(-c2cnc(N)nc2-c2ccc(Cl)cc2)ccc1=O
20,181 to 183,COc1nc(C)cc2nc(S(=O)(=O)Nc3nn(C)c4ccccc34)nn12
21,152 to 154,O=c1c(CCl)cc2cc([N+](=O)[O-])ccc2n1-c1ccccc1
22,169 to 170,CCOC(=O)C(=O)Cc1c[nH]c2ccc(OCc3ccccc3)cc12
23,122 to 123,O=C(CCCCCC1(C(=O)O)CC1)CCCCCC1(C(=O)O)CC1
24,234 to 236,O=C1Nc2ccc(NC(=O)C(=O)N3CCC(Cc4ccccc4)CC3)cc2C1=O
25,212 to 214,O=C1CCC(N2C(=O)c3ccc(CNC(=O)c4ccccn4)cc3C2=O)C(=O)N1 (centres undefined)

# More lines, now with the values behind:
row,SMILES,melting point [°C]
1,CCNCC1CCN(c2cc3c(cc2Cl)c(=O)c(C(=O)O)cn3C2CC2)C1 (centres undefined),> 310
2,CCOC(=O)c1csc2cc(O)ccc12,128 to 129
3,COc1ccc([N+](=O)[O-])cc1C(O)OC (centres undefined),147 to 148
4,O=S(=O)(CCNc1ccc(Cl)c(C(F)(F)F)c1)NCCCOc1cccc(CN2CCCCC2)c1,115 to 120
5,C/C=C(\Br)C(=O)Nc1cccc(F)c1,44 to 45.5
6,CC(O)c1cc(N)ccc1N (centres undefined),124
7,CCN(CC)SNc1ccc(Oc2ccc(C(F)(F)F)cc2Cl)cc1F,58 to 60
8,CC(C)(C)C(=O)C=C(c1ccc(Cl)cc1)S(=O)(=O)c1ccccc1,135 to 136
9,O=C(O)CCOc1cccc2c1CCc1sc(SCC(c3ccccc3)c3ccccc3)nc1-2,123 to 125
10,CC(=O)NC(C)c1ccc(CN2CCN(c3ncccn3)CC2)cc1 (centres undefined),124 to 126
11,Cc1c(C(N)=O)nc2c(=O)[nH]c3cc(C(F)(F)F)ccc3n12,> 250
12,COCCC1(c2ccc(O)cc2)N=CC=N1,173 to 176
13,CC(=O)N1CC(=O)NC(=O)N1c1cc(Cl)c(Oc2ccc(S(C)(=O)=O)cc2)c(Cl)c1,267
14,CCOC(=O)C=Cc1cc(OCc2ccccc2)ccc1-c1ccc(-c2cccnc2)c(C=O)c1,126 to 128
15,COC(=O)C(CCSC)NC(=O)c1ccc(NC(=O)Cc2cn(S(=O)(=O)c3ccc(C)cc3)cn2)cc1-c1ccccc1 (centres undefined),202 to 203
16,O=c1ccoc(C(O)c2cccnc2)c1O (centres undefined),176 to 180
17,CC(=O)N(CC(=O)N1c2ccccc2N(Cc2ccccc2)C(=O)[C@H]2CCC[C@H]21)Cc1ccccc1 (relative stereo),179 to 181
18,COC1=CC(=O)N/C1=C\C(C)C,140 to 141
19,CCC(=O)NC[C@@H]1C[C@H]1c1cccn2nc(C)cc12 (relative stereo),95 to 98
20,COCCOc1ncnc2[nH]ccc12,137 to 139
21,CCNCC1(O)CCN(c2cc3c(cc2F)c(=O)c(C(=O)O)cn3C2CC2)C1 (centres undefined),202 to 207
22,O=C(O)CCCc1cc2nc(Cl)ccc2n1S(=O)(=O)c1cccc(C(F)(F)F)c1,188

row,SMILES,melting point [°C]
1,CC1(C)CCc2c(-c3ccoc3)nc3sc4c(NCCc5c[nH]cn5)ncnc4c3c2C1,265 to 267
2,CCc1c(C(=O)C(N)=O)c2c(OCC(=O)OC)cc3c(c2n1Cc1ccccc1)CCCC3,51 to 53
3,CCCCCCCCCCCCCCCCCCOc1cccc(C(=O)OC)c1OCCCOc1ccc(OCc2ccccc2)cc1,43 to 45
4,Cc1ncc([N+](=O)[O-])n1CCOC(=O)Cc1ccccc1Nc1c(Cl)cccc1Cl,122 to 124
5,O=C(O)c1ccn(-c2ccc(F)cc2)c1,204 to 205
6,O=C(O)c1cn(C2COC2)c2c(F)c(F)c(F)c(O)c2c1=O,242 to 244
7,Cc1nnc(-c2ccc3occ(-c4ccc(CO)cc4)c3c2)o1,157 to 158
8,COCCOc1ccc(CCCO)c(Oc2ncc(Cl)cc2Cl)c1,83.9 to 84.5
9,CC(=O)NC[C@H]1CN(c2ccc(N3CCC(O)(CN=[N+]=[N-])CC3)c(F)c2)C(=O)O1,146 to 149
10,O=C(Nc1cnc2scnc2c1)c1cc2cc(F)ccc2n1Cc1cccc(F)c1,250 to 251
11,O=C(Nc1ccccc1)N1CCc2c(cnc3[nH]nc(Br)c23)C1,249 to 250
12,N#Cc1ccccc1N1CCN(CC(=O)Nc2ccccc2)CC1,137 to 138
13,NC(=O)c1ccccc1N1CCC1COc1cncc(F)c1 (centres undefined),71 to 72
14,COCOc1c(OC)cc(/C=C/C(=O)/C=C/c2cc(OC)c(OCOC)c(OC)c2)cc1OC,146 to 148
15,CCN1C(=O)C(C)(C)C(=O)N(C)c2cc(CN(CCn3ccc4ccsc4c3=O)Cc3cnccc3C)ccc21,138 to 142
16,CCOC(=O)c1cc2c(nc(C)n2C)c2c1CCC(OC)(c1ccccc1)O2 (centres undefined),176 to 178
17,N#CC(C(=O)CF)c1cccc(Cl)c1 (centres undefined),90 to 96
18,Cn1cc(C2=C(c3cn(C)c4c([N+](=O)[O-])cccc34)C(=O)NC2=O)c2ccc(F)cc21,259 to 261
19,Cc1nc2cccc(OCC(C)(C)NC(=O)c3cccc(O)c3)c2c(N)c1C(=O)O,195 to 198
20,CC#CCOc1cc(Cc2c(F)cccc2F)ncn1,57.6
21,NC(=O)CCCN(Cc1ccc(Cl)cc1)Cc1ccc(Cl)cc1,66 to 76
22,CNS(=O)(=O)c1cc(C(=O)NCC2CCCN2CC2CC2)c(OC)cc1N (centres undefined),173 to 174
